# Patent US20240409557A1, “5,6-FUSED AND 6,6-FUSED BICYCLIC ALCOHOLS AND ETHERS AND COMPOSITIONS FOR USE AS 15-PROSTAGLANDIN DEHYDROGENASE MODULATORS” (AMGEN INC., priority 2023, published 2024)
# Tests used:
# [1] = molecular target: T1, human recombinant 15-PGDH (Homo sapiens, UniProt P15428); assay: Recombinant 15-PGDH enzymatic inhibition assay (PGDH-Lumi, NADH signal); assay type: biochemical; conditions: recombinant 15-PGDH; 15 min pre-incubation, 60 min reaction with PGE2 and NAD+, NADH signal
# T1 sequence (P15428 1-266): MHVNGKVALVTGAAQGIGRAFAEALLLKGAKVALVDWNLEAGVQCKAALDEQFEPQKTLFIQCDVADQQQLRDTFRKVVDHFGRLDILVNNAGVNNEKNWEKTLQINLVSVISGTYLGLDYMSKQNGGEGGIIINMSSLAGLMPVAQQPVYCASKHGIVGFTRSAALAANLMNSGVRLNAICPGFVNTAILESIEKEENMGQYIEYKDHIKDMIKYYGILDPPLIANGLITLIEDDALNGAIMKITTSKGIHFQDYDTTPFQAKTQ
# In short: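 Buffer 50 mM Tris pH 7.5 with 0.01% Tween-20 and […]; compound, 22 two-fold dilutions, pre-incubated with enzyme 15 min before substrate.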
# 15-PGDH in A549 cells = molecular target: T2, 15-PGDH in A549 cells (Homo sapiens, UniProt P15428); assay: A549 cellular 15-PGDH assay (PGE2 accumulation, HTRF); assay type: cell-based; conditions: interleukin-stimulated, inhibitor 24 hrs, PGE2 by competitive HTRF, read-out: A549 Cell Assay IC50
# T2 construct: endogenous in cells; host or cells: A549
# T2 sequence (P15428 1-266): T1 sequence (P15428 1-266)
# In short: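 Supernatant PGE2 was quantified by competitive HTRF, in which sample PGE2 blocks FRET between a europium cryptate-labelled antibody and labelled PGE2. It came from A549 epithelial cells induced with IL-13. IC50s were calculated from the inversely proportional signal.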
IC50 [1] [nM],IC50 (15-PGDH in A549 cells) [nM],Compound
0.332,0.14,"Cn1cc2cc(-c3ccc4cc(C5(O)CC6(CCC6)C5)sc4n3)cnc2n1 [Compound C25, 2-(6-(2-methyl-2HI-pyrazolo[3,4-b]pyridin-5-yl)thieno[2,3-b]pyridin-2-yl)spiro[3.3]heptan-2-ol]"
0.278,0.137,"Cn1cc2cc(-c3ccc4cc([C@]5(O)C[C@@H](C(F)F)C5)sc4n3)cnc2n1 [Compound C30C, cis-3-(difluoromethyl)-1-(6-(2-methyl-2H-pyrazolo[3,4-b]pyridin-5-yl)thieno[2,3-b]pyridin-2-yl)cyclobutanol]"
0.511,0.409,"Cn1cc2cc(-c3cnc4cc([C@H](O)C5CC(F)(F)C5)sc4n3)cnc2n1 [Compound B92R, (R)-(3,3-difluorocyclobutyl)(3-(2-methyl-2H-pyrazolo[3,4-b]pyridin-5-yl)thieno[2,3-b]pyrazin-6-yl)methanol]"
13.8,196,"O[C@@H](c1cc2ccc(-c3ccc4oncc4c3)nc2s1)C1CCOCC1 (single isomer, unassigned) [Compound B43R]"
0.707,1.07,"Cn1cc2cc(-c3ccc4c(Cl)c([C@]5(O)C[C@@H](C(F)(F)F)C5)sc4n3)cnc2n1 [Compound C75C, cis-1-(3-chloro-6-(2-methyl-2H-pyrazolo[3,4-b]pyridin-5-yl)thieno[2,3-b]pyridin-2-yl)-3-(trifluoromethyl)cyclobutanol]"
1.21,0.642,"Cn1cc2cc(-c3ccc4cc([C@@H](O)[C@H]5C[C@H](C(F)(F)F)C5)sc4n3)cnc2n1 (single isomer, unassigned) [Compound B84ST]"
0.505,0.438,"CO[C@H]1C[C@@H]([C@@H](O)c2cc3ccc(-c4cnc5nn(C)cc5c4)nc3s2)C1 (single isomer, unassigned) [Compound B88RC]"
0.517,0.579,"CC(C)C(O)c1cc2ccc(-c3cnc4nn(C)cc4c3)nc2s1 (stereo not shown) [Compound B24, 2-methyl-1-(6-(2-methyl-2H-pyrazolo[3,4-b]pyridin-5-yl)thieno[2,3-b]pyridin-2-yl)propan-1-ol]"
0.423,2.37,"Cn1nc2cc(-c3ccc4cc([C@H](O)C5CCOCC5)sc4n3)cnc2n1 (single isomer, unassigned) [Compound B39R]"
28.8,0.572,"Cn1cc2cc(-c3ccc4cc([C@@H](O)C56CC(C5)C6)sc4n3)cnc2n1 (single isomer, unassigned) [Compound B87S]"
0.701,0.957,"Cn1cc2cc(-c3ccc4cc(C(O)C5CCOCC5)sc4n3)cnc2n1 (stereo not shown) [Compound B15, (6-(2-methyl-2H-pyrazolo[3,4-b]pyridin-5-yl)thieno[2,3-b]pyridin-2-yl)(tetrahydro-2H-pyran-4-yl)methanol]"
2.1,17.4,"Cc1nc2cc(-c3ccc4cc([C@@H](O)C5CC(F)(F)C5)sc4n3)ccc2o1 (single isomer, unassigned) [Compound B46S]"
27.7,7.36,"Cn1cc2cc(-c3ccc4cc(C5(O)CC(F)(F)C5)sc4c3)cnc2n1 [Compound C48, 3,3-difluoro-1-(6-(2-methyl-2H-pyrazolo[3,4-b]pyridin-5-yl)-1-benzothiophen-2-yl)cyclobutanol]"
3.42,26.9,"C[C@@H](O)c1cc2c(C3CC3)cc(-c3cnc4nn(C)cc4c3)nc2s1 (single isomer, unassigned) [Compound B11R]"
0.62,0.143,"Cn1cc2cc(-c3ncc4cc(C5(O)CC(C)(C)C5)sc4n3)cnc2n1 [Compound C57, 3,3-dimethyl-1-(2-(2-methyl-2H-pyrazolo[3,4-b]pyridin-5-yl)thieno[2,3-d]pyrimidin-6-yl)cyclobutanol]"
1.65,5.77,"CO[C@]1(C)C[C@](O)(c2cc3ccc(-c4cnc5c(c4)nnn5C)nc3s2)C1 (single isomer, unassigned) [Compound C102T, trans-3-methoxy-3-methyl-1-(6-(3-methyl-3H-[1,2,3]triazolo[4,5-b]pyridin-6-yl)thieno[2,3-b]pyridin-2-yl)cyclobutanol]"
0.758,1.93,"O[C@H](c1cc2ccc(-c3cnc4[nH]ncc4c3)nc2s1)C1CC(F)(F)C1 (single isomer, unassigned) [Compound B47S]"
1.26,9.76,"Cn1nnc2cc(-c3ncc4cc([C@]5(O)C[C@@H](C(F)(F)F)C5)sc4n3)cnc21 [Compound C95C, cis-1-(2-(3-methyl-3H-[1,2,3]triazolo[4,5-b]pyridin-6-yl)thieno[2,3-d]pyrimidin-6-yl)-3-(trifluoromethyl)cyclobutanol]"

IC50 [1] [nM],IC50 (15-PGDH in A549 cells) [nM],Compound
1.12,0.504,"CO[C@H]1C[C@H]([C@H](O)c2cc3ccc(-c4cnc5nn(C)cc5c4)nc3s2)C1 (single isomer, unassigned) [Compound B88ST]"
1030,354,"Cn1cc2cc(-c3ccc4cc([C@]5(O)C[C@@H](C(F)F)C5)ccc4n3)cnc2n1 [Compound D6C, cis-3-(difluoromethyl)-1-(2-(2-methyl-2H-pyrazolo[3,4-b]pyridin-5-yl)-6-quinolinyl)cyclobutanol]"
0.26,0.795,"Cn1cc2cc(-c3ccc4cc(C(O)C5CC(F)(F)C5)sc4n3)cnc2n1 (stereo not shown) [Compound B30, (3,3-difluorocyclobutyl)(6-(2-methyl-2H-pyrazolo[3,4-b]pyridine-5-yl)thieno[2,3-b]pyridine-2-yl)methanol]"
0.864,2.73,"CO[C@]1(C)C[C@](O)(c2cc3cnc(-c4cnc5nn(C)cc5c4)nc3s2)C1 (single isomer, unassigned) [Compound C118T]"
243,187,"Cn1cc2cc(-c3ccc4ccc([C@H](O)C5CCOCC5)cc4n3)cnc2n1 (single isomer, unassigned) [Compound D4R]"
0.589,3.15,"Cn1nnc2cc(-c3ccc4nc([C@]5(O)C[C@H](OC(F)(F)F)C5)sc4n3)cnc21 [Compound C112C, cis-1-(5-(3-methyl-3H-[1,2,3]triazolo[4,5-b]pyridin-6-yl)[1,3]thiazolo[5,4-b]pyridin-2-yl)-3-(trifluoromethoxy)cyclobutanol]"
0.325,0.149,"Cn1cc2cc(-c3ccc4cc([C@H](O)C5CC5)sc4n3)cnc2n1 (single isomer, unassigned) [Compound B16R]"
0.393,0.919,"Cn1cc2cc(-c3cc(C4CC4)c4cc(C(O)C5CCC5)sc4n3)cnc2n1 (single isomer, unassigned) [Compound B8, cyclobutyl(4-cyclopropyl-6-(2-methyl-2H-pyrazolo[3,4-b]pyridin-5-yl)thieno[2,3-b]pyridin-2-yl)methanol]"
0.494,0.667,"Cn1cc2cc(-c3ccc4cc([C@H](O)C56CC(C5)C6)sc4n3)cnc2n1 (single isomer, unassigned) [Compound B87R]"
0.34,0.661,"Cn1cc2cc(-c3ccc4cc([C@H](O)[C@H]5CCC5(F)F)sc4n3)cnc2n1 (single isomer, unassigned) [Compound B94RR]"
0.341,1.41,"Cn1cc2cc(-c3ccc4cc(C(O)C(F)(F)F)sc4n3)cnc2n1 (stereo not shown) [Compound B23, 2,2,2-trifluoro-1-(6-(2-methyl-2H-pyrazolo[3,4-b]pyridin-5-yl)thieno[2,3-b]pyridin-2-yl)ethanol]"
0.603,2.47,"CC(C)n1cc2cc(-c3ccc4cc([C@H](O)C5CC(F)(F)C5)sc4n3)ccc2n1 (single isomer, unassigned) [Compound B56R]"
4.11,11.8,"CCC[C@@H](O)c1cc2ccc(-c3cnc4nn(C)cc4c3)cc2s1 (single isomer, unassigned) [Compound B54R]"
0.557,2.21,"CO[C@]1(C)C[C@@](O)(c2cc3cnc(-c4cnc5nn(C)cc5c4)nc3s2)C1 (single isomer, unassigned) [Compound C118C, cis-3-methoxy-3-methyl-1-(2-(2-methyl-2H-pyrazolo[3,4-b]pyridin-5-yl)thieno[2,3-d]pyrimidin-6-yl)cyclobutanol]"
0.347,0.589,"Cn1cc2cc(-c3ccc4cc([C@]5(O)C[C@@]6(CC6(F)F)C5)sc4n3)cnc2n1 (single isomer, unassigned) [Compound C88T, trans-1,1-difluoro-5-(6-(2-methyl-2H-pyrazolo[3,4-b]pyridin-5-yl)thieno[2,3-b]pyridin-2-yl)spiro[2.3]hexan-5-ol]"
0.426,1.11,"CO[C@]1(C(F)(F)F)C[C@](O)(c2cc3cnc(-c4cnc5nn(C)cc5c4)nc3s2)C1 (single isomer, unassigned) [Compound C113T, trans-3-methoxy-1-(2-(2-methyl-2H-pyrazolo[3,4-b]pyridin-5-yl)thieno[2,3-d]pyrimidin-6-yl)-3-(trifluoromethyl)cyclobutanol]"
0.398,0.0124,"Cn1nnc2cc(-c3ccc4cc([C@H](O)C5CC(F)(F)C5)sc4n3)cnc21 [Compound B82R, (R)-(3,3-difluorocyclobutyl)(6-(3-methyl-3H-[1,2,3]triazolo[4,5-b]pyridin-6-yl)thieno[2,3-b]pyridin-2-yl)methanol]"
